Test results taken from publication PMC8713283 (Journal of Medicinal Chemistry, 2021).
Where two headings read alike, the source gives them in different places.

Columns and labels:
[1] = Log D(dec/w) shake flask partition coefficient; assay type: physicochemical; settings: 1,9-decadiene and PBS pH 7.4 shake flask partition coefficient; for logD hydrocarbon water: 1,9-decadiene/PBS
[2] = human
P-gp (human MDR1) = assay: in vitro; settings: dog; for Papp A→B at 5 µM / Papp B→A at 5 µM: MDCK-MDR1; for efflux ratio at 5 µM: MDCK-MDR1, Efflux ratio B-A/A-B, MDCK-MDR1, 5 µM, N = 2
[3] = target: T1, VHL (VCB, VHL:ElonginC:ElonginB) (Homo sapiens, UniProt P40337); assay: FP competition binding, binary binding to VHL
T1 construct: His6 (N, cleaved yes); made in house; host or cells: Escherichia coli

[4] = LPEester – LPEamide by amide–ester matched pairs
[5] = compound alone to VHL, FP competition with FAM-HIF-1α peptide, mean ± SEM, read-out: Kd binary
Wherever Plasma stability is given: time not given here.

SMILES: CCCC(=O)NCCCCCC(=O)N[C@H](C(=O)N1C[C@H](O)C[C@H]1C(=O)NCc1ccc(-c2scnc2C)cc1)C(C)(C)C [Compound 2, (2S,4R)-1-((S)-2-(6-Butyramidohexanamido)-3,3-dimethylbutanoyl)-4-hydroxy-N-(4-(4-methylthiazol-5-yl)benzyl)pyrrolidine-2-carboxamide]
- logD hydrocarbon water [1]: -2.2
- Plasma stability [2]: 83 ± 5%
- Papp A→B at 5 µM (P-gp (human MDR1)): 0.4 ×10⁻⁶ cm/s
- Papp B→A at 5 µM (P-gp (human MDR1)): 2.9 ×10⁻⁶ cm/s
- efflux ratio at 5 µM (P-gp (human MDR1)): 7

SMILES: Cc1ncsc1-c1ccc(CNC(=O)[C@@H]2C[C@@H](O)CN2C(=O)[C@@H](NC(=O)CCOCCOCCOCCNC(=O)Cc2ccccc2)C(C)(C)C)cc1 [Compound 17, (2S,4R)-1-((S)-17-(tert-Butyl)-2,15-dioxo-1-phenyl-6,9,12-trioxa-3,16-diazaoctadecan-18-oyl)-4-hydroxy-N-(4-(4-methylthiazol-5-yl)benzyl)pyrrolidine-2-carboxamide]
- logD hydrocarbon water [1]: -1.9
- Kd [3, 5]: 138 nM
- Plasma stability [2]: 133 ± 18%
- Papp B→A at 5 µM (P-gp (human MDR1)): 2 ×10⁻⁶ cm/s

SMILES: Cc1ncsc1-c1ccc(CNC(=O)[C@@H]2C[C@@H](O)CN2C(=O)[C@@H](NC(=O)CCCCCNC(=O)CC(c2ccccc2)c2ccccc2)C(C)(C)C)cc1 [Compound 6, (2S,4R)-1-((S)-2-(6-(3,3-Diphenylpropanamido)hexanamido)-3,3-dimethylbutanoyl)-4-hydroxy-N-(4-(4-methylthiazol-5-yl)benzyl)pyrrolidine-2-carboxamide]
- logD hydrocarbon water [1]: -0.3
- Plasma stability [2]: 149 ± 9%
- Papp A→B at 5 µM (P-gp (human MDR1)): 0.1 ×10⁻⁶ cm/s
- Papp B→A at 5 µM (P-gp (human MDR1)): 18.5 ×10⁻⁶ cm/s
- efflux ratio at 5 µM (P-gp (human MDR1)): 133

SMILES: Cc1ncsc1-c1ccc(CNC(=O)[C@@H]2C[C@@H](O)CN2C(=O)[C@@H](NC(=O)CCCCCOC(=O)C2CCCCC2)C(C)(C)C)cc1 [Compound 11, 6-(((S)-1-((2S,4R)-4-Hydroxy-2-((4-(4-methylthiazol-5-yl)benzyl)carbamoyl)pyrrolidin-1-yl)-3,3-dimethyl-1-oxobutan-2-yl)amino)-6-oxohexyl cyclohexanecarboxylate]
- logD hydrocarbon water [1]: 1.1
- ΔLPE [4]: 1.8
- Plasma stability [2]: 14 ± 1%
- Papp A→B at 5 µM (P-gp (human MDR1)): 0.3 ×10⁻⁶ cm/s
- Papp B→A at 5 µM (P-gp (human MDR1)): 35.6 ×10⁻⁶ cm/s
- efflux ratio at 5 µM (P-gp (human MDR1)): 142

SMILES: Cc1ncsc1-c1ccc(CNC(=O)[C@@H]2C[C@@H](O)CN2C(=O)[C@@H](NC(=O)CCCCCOC(=O)CC23CC4CC(CC(C4)C2)C3)C(C)(C)C)cc1 [Compound 12, 6-(((S)-1-((2S,4R)-4-Hydroxy-2-((4-(4-methylthiazol-5-yl)benzyl)carbamoyl)pyrrolidin-1-yl)-3,3-dimethyl-1-oxobutan-2-yl)amino)-6-oxohexyl 2-(adamantan-1-yl)acetate]
- logD hydrocarbon water [1]: 2.4
- ΔLPE [4]: 1.8
- Plasma stability [2]: 80 ± 11%
- Papp B→A at 5 µM (P-gp (human MDR1)): 4.5 ×10⁻⁶ cm/s

SMILES: Cc1ncsc1-c1ccc(CNC(=O)[C@@H]2C[C@@H](O)CN2C(=O)[C@@H](NC(=O)CCCCCNC(=O)CC23CC4CC(CC(C4)C2)C3)C(C)(C)C)cc1 [Compound 5, (2S,4R)-1-((S)-2-(6-(2-(Adamantan-1-yl)acetamido)hexanamido)-3,3-dimethylbutanoyl)-4-hydroxy-N-(4-(4-methylthiazol-5-yl)benzyl)pyrrolidine-2-carboxamide]
- logD hydrocarbon water [1]: -0.2
- Plasma stability [2]: 74 ± 8%
- Papp A→B at 5 µM (P-gp (human MDR1)): 0.2 ×10⁻⁶ cm/s
- Papp B→A at 5 µM (P-gp (human MDR1)): 23.7 ×10⁻⁶ cm/s
- efflux ratio at 5 µM (P-gp (human MDR1)): 158

SMILES: COCC(=O)NCCCCCC(=O)N[C@H](C(=O)N1C[C@H](O)C[C@H]1C(=O)NCc1ccc(-c2scnc2C)cc1)C(C)(C)C [Compound 1, (2S,4R)-4-Hydroxy-1-((S)-2-(6-(2-methoxyacetamido)hexanamido)-3,3-dimethylbutanoyl)-N-(4-(4-methylthiazol-5-yl)benzyl)pyrrolidine-2-carboxamide]
- logD hydrocarbon water [1]: -2.2
- Plasma stability [2]: 126 ± 4%
- Papp A→B at 5 µM (P-gp (human MDR1)): 0.5 ×10⁻⁶ cm/s
- Papp B→A at 5 µM (P-gp (human MDR1)): 1.7 ×10⁻⁶ cm/s
- efflux ratio at 5 µM (P-gp (human MDR1)): 3

SMILES: Cc1ncsc1-c1ccc(CNC(=O)[C@@H]2C[C@@H](O)CN2C(=O)[C@@H](NC(=O)CCCCCOC(=O)Cc2ccccc2)C(C)(C)C)cc1 [Compound 10, 6-(((S)-1-((2S,4R)-4-Hydroxy-2-((4-(4-methylthiazol-5-yl)benzyl)carbamoyl)pyrrolidin-1-yl)-3,3-dimethyl-1-oxobutan-2-yl)amino)-6-oxohexyl 2-phenylacetate]
- Kd [3, 5]: 136 nM

SMILES: Cc1ncsc1-c1ccc(CNC(=O)[C@@H]2C[C@@H](O)CN2C(=O)[C@@H](NC(=O)CCOCCOCCOC(=O)Cc2ccccc2)C(C)(C)C)cc1 [Compound 19, 2-(2-(3-(((S)-1-((2S,4R)-4-Hydroxy-2-((4-(4-methylthiazol-5-yl)benzyl)carbamoyl)pyrrolidin-1-yl)-3,3-dimethyl-1-oxobutan-2-yl)amino)-3-oxopropoxy)ethoxy)ethyl 2-phenylacetate]
- Kd [3, 5]: 197 ± 27 nM

SMILES: Cc1ncsc1-c1ccc(CNC(=O)[C@@H]2C[C@@H](O)CN2C(=O)[C@@H](NC(=O)CCCCCNC(=O)C2CCCCC2)C(C)(C)C)cc1 [Compound 4, (2S,4R)-1-((S)-2-(6-(Cyclohexanecarboxamido)hexanamido)-3,3-dimethylbutanoyl)-4-hydroxy-N-(4-(4-methylthiazol-5-yl)benzyl)pyrrolidine-2-carboxamide]
- logD hydrocarbon water [1]: -1.4
- Plasma stability [2]: 168 ± 20%
- Papp A→B at 5 µM (P-gp (human MDR1)): 0.3 ×10⁻⁶ cm/s
- Papp B→A at 5 µM (P-gp (human MDR1)): 10.3 ×10⁻⁶ cm/s
- efflux ratio at 5 µM (P-gp (human MDR1)): 33

SMILES: C[C@H]1O[C@@H](O[C@H]2[C@@H](O)C[C@H](O[C@H]3[C@@H](O)C[C@H](O[C@H]4CC[C@@]5(C)[C@H](CC[C@@H]6[C@@H]5C[C@@H](O)[C@]5(C)[C@@H](C7=CC(=O)OC7)CC[C@]65O)C4)O[C@@H]3C)O[C@@H]2C)C[C@H](O)[C@@H]1O [Digoxin, reference compound]
- Papp A→B at 5 µM (P-gp (human MDR1)): 0.8 ×10⁻⁶ cm/s
- Papp B→A at 5 µM (P-gp (human MDR1)): 21.5 ×10⁻⁶ cm/s
- efflux ratio at 5 µM (P-gp (human MDR1)): 26.3

SMILES: Cc1ncsc1-c1ccc(CNC(=O)[C@@H]2C[C@@H](O)CN2C(=O)[C@@H](NC(=O)CCOCCNC(=O)Cc2ccccc2)C(C)(C)C)cc1 [Compound 15, (2S,4R)-1-((S)-3,3-Dimethyl-2-(3-(2-(2-phenylacetamido)ethoxy)propanamido)butanoyl)-4-hydroxy-N-(4-(4-methylthiazol-5-yl)benzyl)pyrrolidine-2-carboxamide]
- logD hydrocarbon water [1]: -1.4
- Kd [3, 5]: 171 ± 14 nM
- Plasma stability [2]: 103 ± 14%
- Papp A→B at 5 µM (P-gp (human MDR1)): 0.4 ×10⁻⁶ cm/s
- Papp B→A at 5 µM (P-gp (human MDR1)): 4.6 ×10⁻⁶ cm/s
- efflux ratio at 5 µM (P-gp (human MDR1)): 13

SMILES: CCCCOc1ccc(-c2ccc(C(=O)OCCCCCC(=O)N[C@H](C(=O)N3C[C@H](O)C[C@H]3C(=O)NCc3ccc(-c4scnc4C)cc3)C(C)(C)C)cc2)cc1 [Compound 14, 6-(((S)-1-((2S,4R)-4-Hydroxy-2-((4-(4-methylthiazol-5-yl)benzyl)carbamoyl)pyrrolidin-1-yl)-3,3-dimethyl-1-oxobutan-2-yl)amino)-6-oxohexyl 4′-butoxy-[1,1′-biphenyl]-4-carboxylate]
- LogD (dec/w) [1]: BLD^h
- Plasma stability [2]: 119 ± 28%

SMILES: Cc1ncsc1-c1ccc(CNC(=O)[C@@H]2C[C@@H](O)CN2C(=O)[C@@H](NC(=O)CCOCCOCCNC(=O)Cc2ccccc2)C(C)(C)C)cc1 [Compound 16, (2S,4R)-1-((S)-14-(tert-Butyl)-2,12-dioxo-1-phenyl-6,9-dioxa-3,13-diazapentadecan-15-oyl)-4-hydroxy-N-(4-(4-methylthiazol-5-yl)benzyl)pyrrolidine-2-carboxamide]
- logD hydrocarbon water [1]: -2.3
- Kd [3, 5]: 172 ± 17 nM
- Plasma stability [2]: 151 ± 30%
- Papp B→A at 5 µM (P-gp (human MDR1)): 3.3 ×10⁻⁶ cm/s

SMILES: Cc1ncsc1-c1ccc(CNC(=O)[C@@H]2C[C@@H](O)CN2C(=O)[C@@H](NC(=O)CCOCCOCCOCCOC(=O)Cc2ccccc2)C(C)(C)C)cc1 [Compound 20, (S)-14-((2S,4R)-4-Hydroxy-2-((4-(4-methylthiazol-5-yl)benzyl)carbamoyl)pyrrolidine-1-carbonyl)-15,15-dimethyl-12-oxo-3,6,9-trioxa-13-azahexadecyl 2-phenylacetate]
- Kd [3, 5]: 144 nM

SMILES: Cc1ncsc1-c1ccc(CNC(=O)[C@@H]2C[C@@H](O)CN2C(=O)[C@@H](NC(=O)CCOCCOC(=O)Cc2ccccc2)C(C)(C)C)cc1 [Compound 18, 2-(3-(((S)-1-((2S,4R)-4-Hydroxy-2-((4-(4-methylthiazol-5-yl)benzyl)carbamoyl)pyrrolidin-1-yl)-3,3-dimethyl-1-oxobutan-2-yl)amino)-3-oxopropoxy)ethyl 2-phenylacetate]
- Kd [3]: 232 ± 47 nM
- Kd [3, 5]: ~200 nM

SMILES: CC(C)NCC(O)COc1cccc2ccccc12 (centres unmarked) [Propranolol, reference compound]
- Papp A→B at 5 µM (P-gp (human MDR1)): 49.1 ×10⁻⁶ cm/s
- Papp B→A at 5 µM (P-gp (human MDR1)): 41.6 ×10⁻⁶ cm/s
- efflux ratio at 5 µM (P-gp (human MDR1)): 0.8

SMILES: Cc1ncsc1-c1ccc(CNC(=O)[C@@H]2C[C@@H](O)CN2C(=O)[C@@H](NC(=O)CCCCCNC(=O)Cc2ccccc2)C(C)(C)C)cc1 [Compound 3, (2S,4R)-1-((S)-3,3-Dimethyl-2-(6-(2-phenylacetamido)hexanamido)butanoyl)-4-hydroxy-N-(4-(4-methylthiazol-5-yl)benzyl)pyrrolidine-2-carboxamide]
- logD hydrocarbon water [1]: -1.5
- Kd [3, 5]: 119 nM
- Plasma stability [2]: 130 ± 3%
- Papp A→B at 5 µM (P-gp (human MDR1)): 0.7 ×10⁻⁶ cm/s
- Papp B→A at 5 µM (P-gp (human MDR1)): 8.4 ×10⁻⁶ cm/s
- efflux ratio at 5 µM (P-gp (human MDR1)): 12

SMILES: CCCCOc1ccc(-c2ccc(C(=O)NCCCCCC(=O)N[C@H](C(=O)N3C[C@H](O)C[C@H]3C(=O)NCc3ccc(-c4scnc4C)cc3)C(C)(C)C)cc2)cc1 [Compound 7, (2S,4R)-1-((S)-2-(6-(4′-Butoxy-[1,1′-biphenyl]-4-carboxamido)hexanamido)-3,3-dimethylbutanoyl)-4-hydroxy-N-(4-(4-methylthiazol-5-yl)benzyl)pyrrolidine-2-carboxamide]
- logD hydrocarbon water [1]: 1
- Plasma stability [2]: 83 ± 14%
- Papp B→A at 5 µM (P-gp (human MDR1)): 0.2 ×10⁻⁶ cm/s
